Source: ChEMBL document CHEMBL3045111, “Synthesis and herbicidal activities of novel 3-(substituted benzyloxy or phenoxy)-6-methyl-4-(3-trifluoromethylphenyl)pyridazine derivatives” (2012)
Calls of active or inactive are those of the source. The rule behind the calls is not given here.

Tests used:
[1] = test system: Amaranthus retroflexus; test: Pre-emergence herbicidal activity against Amaranthus retroflexus under greenhouse condition at 750 g /ha measured after 24 days by spray method; assay type: functional; settings: 576 h, read-out: GI
[2] = test system: Digitaria; test: Pre-emergence herbicidal activity against Digitaria adscendens under greenhouse condition at 750 g /ha measured after 24 days by spray method; assay type: functional; settings: in Digitaria adscendens, 576 h, read-out: GI
[3] = test system: Spirodela polyrhiza; test: Bleaching herbicidal activity in Spirodela polyrhiza fronds cultured in compound-containing in medium assessed as chlorophyll inhibition at 1 ug/ml after 7 days; assay type: functional; settings: 168 h
[4] = test system: Amaranthus retroflexus; test: Post-emergence herbicidal activity against one-leaf stage Amaranthus retroflexus under greenhouse condition assessed as complete bleaching of leaves at 300 g /ha measured after 24 days by spray method; assay type: functional, organism-based
[5] = test system: Digitaria; test: Post-emergence herbicidal activity against one-leaf stage of Digitaria adscendens under greenhouse condition at 750 g /ha measured after 24 days by spray method; assay type: functional; settings: in Digitaria adscendens, 576 h, read-out: GI
[6] = test system: Spirodela polyrhiza; test: Bleaching herbicidal activity in Spirodela polyrhiza fronds cultured in compound-containing in medium assessed as chlorophyll inhibition at 10 ug/ml after 7 days; assay type: functional; settings: 168 h
[7] = test system: Amaranthus retroflexus; test: Post-emergence herbicidal activity against one-leaf stage Amaranthus retroflexus under greenhouse condition at 300 g /ha measured after 24 days by spray method; assay type: functional; settings: 576 h, read-out: GI
[8] = test system: Amaranthus retroflexus; test: Post-emergence herbicidal activity against one-leaf stage Amaranthus retroflexus under greenhouse condition at 75 g /ha measured after 24 days by spray method; assay type: functional; settings: 576 h, read-out: GI
[9] = test system: Brassica rapa subsp. oleifera; test: Post-emergence herbicidal activity against one-leaf stage Brassica rapa subsp. oleifera under greenhouse condition at 300 g /ha measured after 24 days by spray method; assay type: functional; settings: 576 h, read-out: GI
[10] = test system: Brassica rapa subsp. oleifera; test: Post-emergence herbicidal activity against one-leaf stage Brassica rapa subsp. oleifera under greenhouse condition at 750 g /ha measured after 24 days by spray method; assay type: functional; settings: 576 h, read-out: GI
[11] = test system: Amaranthus retroflexus; test: Post-emergence herbicidal activity against one-leaf stage Amaranthus retroflexus under greenhouse condition assessed as complete bleaching of leaves at 75 g /ha measured after 24 days by spray method; assay type: functional, organism-based
[12] = test system: Amaranthus retroflexus; test: Post-emergence herbicidal activity against one-leaf stage Amaranthus retroflexus under greenhouse condition at 600 g /ha measured after 24 days by spray method; assay type: functional; settings: 576 h, read-out: GI
[13] = test system: Brassica rapa subsp. oleifera; test: Post-emergence herbicidal activity against one-leaf stage Brassica rapa subsp. oleifera under greenhouse condition assessed as complete bleaching of leaves at 150 g /ha measured after 24 days by spray method; assay type: functional, organism-based
[14] = test system: Brassica rapa subsp. oleifera; test: Post-emergence herbicidal activity against one-leaf stage Brassica rapa subsp. oleifera under greenhouse condition at 75 g /ha measured after 24 days by spray method; assay type: functional; settings: 576 h, read-out: GI
[15] = test system: Brassica rapa subsp. oleifera; test: Post-emergence herbicidal activity against one-leaf stage Brassica rapa subsp. oleifera under greenhouse condition assessed as complete bleaching of leaves at 300 g /ha measured after 24 days by spray method; assay type: functional, organism-based
[16] = test system: Amaranthus retroflexus; test: Post-emergence herbicidal activity against one-leaf stage Amaranthus retroflexus under greenhouse condition assessed as complete bleaching of leaves at 600 g /ha measured after 24 days by spray method; assay type: functional, organism-based
[17] = test system: Echinochloa crus-galli; test: Post-emergence herbicidal activity against one-leaf stage of Echinochloa crus-galli (barnyard grass) under greenhouse condition at 750 g /ha measured after 24 days by spray method; assay type: functional; settings: 576 h, read-out: GI
[18] = test system: Brassica rapa subsp. oleifera; test: Post-emergence herbicidal activity against one-leaf stage Brassica rapa subsp. oleifera under greenhouse condition at 150 g /ha measured after 24 days by spray method; assay type: functional; settings: 576 h, read-out: GI
[19] = test system: Amaranthus retroflexus; test: Post-emergence herbicidal activity against one-leaf stage Amaranthus retroflexus under greenhouse condition assessed as complete bleaching of leaves at 150 g /ha measured after 24 days by spray method; assay type: functional, organism-based
[20] = test system: Brassica rapa subsp. oleifera; test: Post-emergence herbicidal activity against one-leaf stage Brassica rapa subsp. oleifera under greenhouse condition assessed as complete bleaching of leaves at 600 g /ha measured after 24 days by spray method; assay type: functional, organism-based
[21] = test system: Brassica rapa subsp. oleifera; test: Post-emergence herbicidal activity against one-leaf stage Brassica rapa subsp. oleifera under greenhouse condition assessed as complete bleaching of leaves at 75 g /ha measured after 24 days by spray method; assay type: functional, organism-based
[22] = test system: Amaranthus retroflexus; test: Post-emergence herbicidal activity against one-leaf stage of Amaranthus retroflexus under greenhouse condition at 750 g /ha measured after 24 days by spray method; assay type: functional; settings: 576 h, read-out: GI
[23] = test system: Brassica rapa subsp. oleifera; test: Post-emergence herbicidal activity against one-leaf stage Brassica rapa subsp. oleifera under greenhouse condition at 600 g /ha measured after 24 days by spray method; assay type: functional; settings: 576 h, read-out: GI
[24] = test system: Echinochloa crus-galli; test: Pre-emergence herbicidal activity against Echinochloa crus-galli (barnyard grass) under greenhouse condition at 750 g /ha measured after 24 days by spray method; assay type: functional; settings: 576 h, read-out: GI
[25] = test system: Amaranthus retroflexus; test: Post-emergence herbicidal activity against one-leaf stage Amaranthus retroflexus under greenhouse condition at 150 g /ha measured after 24 days by spray method; assay type: functional; settings: 576 h, read-out: GI
[26] = test system: Brassica rapa subsp. oleifera; test: Pre-emergence herbicidal activity against Brassica rapa subsp. oleifera under greenhouse condition at 750 g /ha measured after 24 days by spray method; assay type: functional; settings: 576 h, read-out: GI

## Cc1cc(-c2cccc(C(F)(F)F)c2)c(Oc2ccc(Cl)cc2)nn1
[1]
  inhibition of growth at 750 g/ha: 100%
[2]
  inhibition of growth at 750 g/ha: 97%
[3]
  inhibition at 1 µg/mL: 72%
[4]
  Activity: Active
[5]
  inhibition of growth at 750 g/ha: 79%
[6]
  inhibition at 10 µg/mL: 99%
[7]
  inhibition of growth at 300 g/ha: 86%
[8]
  inhibition of growth at 75 g/ha: 45%
[9]
  inhibition of growth at 300 g/ha: 76%
[10]
  inhibition of growth at 750 g/ha: 98%
[11]
  Activity: Active
[12]
  inhibition of growth at 600 g/ha: 90%
[13]
  Activity: Active
[14]
  inhibition of growth at 75 g/ha: 65%
[15]
  Activity: Active
[16]
  Activity: Active
[17]
  inhibition of growth at 750 g/ha: 78%
[18]
  inhibition of growth at 150 g/ha: 71%
[19]
  Activity: Active
[20]
  Activity: Active
[21]
  Activity: Active
[22]
  inhibition of growth at 750 g/ha: 94%
[23]
  inhibition of growth at 600 g/ha: 80%
[24]
  inhibition of growth at 750 g/ha: 85%
[25]
  inhibition of growth at 150 g/ha: 84%
[26]
  inhibition of growth at 750 g/ha: 97%

## Cc1cc(-c2cccc(C(F)(F)F)c2)c(Oc2ccc(F)cc2)nn1
[1]
  inhibition of growth at 750 g/ha: 100%
[2]
  inhibition of growth at 750 g/ha: 96%
[3]
  inhibition at 1 µg/mL: 75%
[4]
  Activity: Active
[5]
  inhibition of growth at 750 g/ha: 68%
[6]
  inhibition at 10 µg/mL: 91%
[7]
  inhibition of growth at 300 g/ha: 90%
[8]
  inhibition of growth at 75 g/ha: 64%
[9]
  inhibition of growth at 300 g/ha: 70%
[10]
  inhibition of growth at 750 g/ha: 95%
[11]
  Activity: Active
[12]
  inhibition of growth at 600 g/ha: 100%
[13]
  Activity: Active
[14]
  inhibition of growth at 75 g/ha: 53%
[15]
  Activity: Active
[16]
  Activity: Active
[17]
  inhibition of growth at 750 g/ha: 35%
[18]
  inhibition of growth at 150 g/ha: 61%
[19]
  Activity: Active
[20]
  Activity: Active
[21]
  Activity: Active
[22]
  inhibition of growth at 750 g/ha: 96%
[23]
  inhibition of growth at 600 g/ha: 83%
[24]
  inhibition of growth at 750 g/ha: 84%
[25]
  inhibition of growth at 150 g/ha: 79%
[26]
  inhibition of growth at 750 g/ha: 98%

## Cc1cc(-c2cccc(C(F)(F)F)c2)c(Oc2cc(F)cc(F)c2)nn1
[1]
  inhibition of growth at 750 g/ha: 96%
[2]
  inhibition of growth at 750 g/ha: 100%
[3]
  inhibition at 1 µg/mL: 80%
[4]
  Activity: Active
[5]
  inhibition of growth at 750 g/ha: 48%
[6]
  inhibition at 10 µg/mL: 84%
[7]
  inhibition of growth at 300 g/ha: 98%
[8]
  inhibition of growth at 75 g/ha: 31%
[9]
  inhibition of growth at 300 g/ha: 78%
[10]
  inhibition of growth at 750 g/ha: 80%
[12]
  inhibition of growth at 600 g/ha: 100%
[13]
  Activity: Active
[14]
  inhibition of growth at 75 g/ha: 55%
[15]
  Activity: Active
[16]
  Activity: Active
[17]
  inhibition of growth at 750 g/ha: 57%
[18]
  inhibition of growth at 150 g/ha: 65%
[19]
  Activity: Active
[20]
  Activity: Active
[21]
  Activity: Active
[22]
  inhibition of growth at 750 g/ha: 100%
[23]
  inhibition of growth at 600 g/ha: 82%
[24]
  inhibition of growth at 750 g/ha: 51%
[25]
  inhibition of growth at 150 g/ha: 96%
[26]
  inhibition of growth at 750 g/ha: 65%
